In assay [1] the test system is COLO829 (Human melanoma, B-Raf V599E). Briefly: Cell proliferation assay (Cell Titer Glo). Format: cell-based. As for the experimental part:
(§1) In one illustrative method, cells are treated with various concentrations of the inhibitor in 96 well plates, incubated at 37° C./5% CO2 for three days, and analyzed using the Cell Titer Glo kit (Promega).
(§2) COLO829 is a human melanoma cell line. HT29 is a human colon cancer cell line. Both cell lines have a V600E B-Raf mutation. SKOV3 is an ovarian cancer cell line having wild-type B-Raf. EKR2 (extra-cellular signal regulated kinase 2) is a kinase in the Ras/B-Raf MAP kinase cascade pathway.
On the technique in general: ATP-based viability assays read luminescence as a measure of living cells.

The test system of assay [2] is HT29 (Human colon, B-Raf V599E). The assay is described as follows: Cell proliferation assay (Cell Titer Glo). Format: cell-based. As for the experimental part: as §1, §2
Assay [3] deals with SKOV3 (ovarian cancer cell line, wild-type B-Raf). The assay is described as follows: Cell proliferation assay. The format is cell-based. Particulars: Homo sapiens, SK-OV-3; Table 7; SKOV3 ovarian cancer, wild-type B-Raf; read-out: Cell Line IC50 SKOV3. As for the experimental part: as §1, §2
The target in assay [4] is ERK2 (UniProt P28482). Format: biochemical. The arrangement: "the target Cys 172 residue. As for the experimental part:
(§3) In either case, the time dependent inactivation can be dampened by the presence of a competing substrate, in this case ATP.
(§4) For covalent inhibitors, plots of log (activity) versus time provide apparent first-order rate constants (kobsd) of enzyme activity loss. If these assays are performed at varying concentrations of inhibitor, a series of first-order plots is obtained and kobsd obtained at each inhibitor concentration. […] Such molecules may be competitive inhibitors but should not show time-dependent inactivation.
(§5) Inhibition progress curve analysis was performed using continuous, colorimetric, or fluorimetric assays. All experiments were done at 1 mM ATP, with the exception of KDR (at 5 mM ATP).
(§6) MEK1 assays were performed using pre-incubation experiments with radioactive [^32P]ATP and filter binding of product. All other kinases were analyzed using progress curve analysis from a continuous spectrophotometric assay.

Assay [5] concerns A375 (Human melanoma, B-Raf V599E). The assay is described as follows: Cell proliferation assay (Cell Titer Glo). Format: cell-based. As for the experimental part:
as §1

The subject of assay [6] is WM266-4 (Human melanoma, B-Raf V599D). Briefly: Cell proliferation assay (Cell Titer Glo). The format is cell-based. As for the experimental part: as §1
Assay [7] deals with P815 (Mouse mastocytoma, KIT D814Y). The assay is described as follows: Cell proliferation assay (Cell Titer Glo). As to conditions: Mus musculus. The format is cell-based. As for the experimental part:
as §1

Assay [8] has as its system A549 (NSCLC, B-Raf wild-type). Briefly: Cell proliferation assay (Cell Titer Glo). Format: cell-based. As for the experimental part:
as §1

The test system of assay [9] is DU4475 (Human breast, B-Raf V599E). The assay is described as follows: Cell proliferation assay (Cell Titer Glo). Format: cell-based. As for the experimental part:
as §1

The test system of assay [10] is EOL-1 (Human leukemia FLP1L1-PDGFRA). The assay is described as follows: Cell proliferation assay (Cell Titer Glo). The format is cell-based. As to conditions: Homo sapiens, EOL1, read-out: Kinase Inhibitor IC50. As for the experimental part:
as §1

The subject of assay [11] is MV4-11 (Human leukemia Flt3-ITD). Briefly: Cell proliferation assay (Cell Titer Glo). Format: cell-based. As to conditions: Homo sapiens, MV4-11, read-out: Kinase Inhibitor IC50. As for the experimental part: as §1
Assay [12] concerns ERK1/2 activation in human T cells. As to conditions: tested at 0.3 to 3 μM; cited from earlier work.
The target in assay [13] is T1, MEK1 (Homo sapiens, UniProt Q02750). Particulars: cited from earlier work.
A further assay concerns PKA, PKC or Raf. Particulars: cited from earlier work.
A further assay concerns the target rat MEK1 (Rattus norvegicus, UniProt Q01986). As to conditions: cited from earlier work.
The test system of a further assay is BCCs in Ptc+/− mice. As to conditions: topical; cited from earlier work.
Assay [14] concerns ASZ001 (Basal cell carcinoma). Briefly: Cell proliferation assay (Cell Titer Glo). The format is cell-based. As for the experimental part: as §1
In assay [15] the target is ERK2 (UniProt P28482). The format is biochemical. On the set-up: Ki; other: ERK2; 1 mM ATP; kinact; T1/2; kinact/Ki; "the target Cys 172 residue. As to conditions: ERK2. As for the experimental part:
as §3, §4, §5, §6

Assay [16] addresses T1, MEK1. The assay is described as follows: Time-dependent kinase inhibition kinetics (pre-incubation, [32P]ATP filter binding). Format: biochemical. As for the experimental part:
Typically, one measures the increase in inhibition of protein kinase activity in the presence of inhibitor over time. In one method, aliquots of a “pre-incubation” reaction mixture containing enzyme and inhibitor are assayed for activity (initial velocities) over time; increased inhibition or decreased initial velocities will be observed over time as the Michael adduct forms (Walsh, C, Enzyme Reaction Mechanisms, W.H. Freeman & Co., 1979, pp 86-94). In a second method, the time dependent loss of activity is measured as “progress curves” that measure and analyze product formed (e.g. ADP) versus time (Morrison & Walsh, Adv. Enzymol Relat Areas Mol. Biol. 1988, 61, 201-301). In either case, the time dependent inactivation can be dampened by the presence of a competing substrate, in this case ATP.
MEK1 and many other protein kinases that can be targets of the compounds useful in the methods of the invention can be obtained commercially (Invitrogen; Carlsbad, Calif.) or prepared using standard molecular biology techniques. After activation by phosphorylation, they are assayed for their ability to phosphorylate a target kinase or surrogate substrate. For example, MEK1 can be assayed in a mixture containing MEK1 (30 nM) and ERK1 (2 μM), [γ-^32P]ATP (10 uM) and MgCl2 in Mops buffer pH 7.6. Phosphorylation can be measured by isolating [γ-^32P]-phosphorylated ERK1 on phosphocellulose paper, and counting radioactive product. Alternatively, a coupled enzyme system may be used in which a product of the kinase reaction, such as ADP, is measured by analysis with a secondary system that converts that product (e.g. ADP) to an easily measurable entity (e.g. NADH); often, such coupled systems can be measured by convenient spectrophotometry assays.
To measure time-dependent inhibition using the “pre-incubation method”, MEK1 (or other kinase) is incubated with varying amounts of the lactone inhibitor; […]. Aliquots are removed at various times, added to a solution containing substrates [γ-^32P]ATP, ERK1 (or other substrate), and the other components of the reaction, and initial rates are determined as a measure of remaining enzyme activity.
For covalent inhibitors, plots of log (activity) versus time provide apparent first-order rate constants (kobsd) of enzyme activity loss. If these assays are performed at varying concentrations of inhibitor, a series of first-order plots is obtained and kobsd obtained at each inhibitor concentration. To measure time-dependent inhibition using the “progress-curve method” (see references cited above and Kuzmic et al., Methods Enzymol 2004; 383: 366-81), ERK (or other kinase) is treated with varying amounts of the lactone inhibitor, and the formation of ADP is measured continuously by a coupled assay. […] Such molecules may be competitive inhibitors but should not show time-dependent inactivation.
Those of skill in the art will recognize that within the set of compounds useful in the methods of the invention, significant variability in specificity can be achieved, allowing one to identify optimal compounds for different applications. Inhibition progress curve analysis was performed using continuous, colorimetric, or fluorimetric assays. All experiments were done at 1 mM ATP, with the exception of KDR (at 5 mM ATP).
as §6

Where [17] appears, read: COLO-829, Table 7, COLO829 human melanoma, V600E B-Raf, read-out: Cell Line IC50 COLO829.
The mark [18] stands for this setting: HT-29, Table 7, HT29 human colon cancer, V600E B-Raf, read-out: Cell Line IC50 HT29.
[19] abbreviates: HT29 (Human colon, B-Raf V599E), Tables 1 and 4, read-out: Kinase Inhibitor IC50.
The mark [20] stands for this setting: A375 (Human melanoma, B-Raf V599E), Tables 1 and 4, read-out: Kinase Inhibitor IC50.
[21] abbreviates: WM266-4 (Human melanoma, B-Raf V599D), Tables 1 and 4, read-out: Kinase Inhibitor IC50.
The mark [22] stands for this setting: A549 (NSCLC, B-Raf wild-type), Tables 1 and 4, read-out: Kinase Inhibitor IC50.
Setting [23] is: DU4475 (Human breast, B-Raf V599E), Tables 1 and 4, read-out: Kinase Inhibitor IC50.

Read-outs that look alike come from different tables or passages of the source.

The term IC50 denotes the concentration that inhibits the measured activity by half. For orientation: GI50 means the concentration that inhibits growth by half. A high value points to less potent growth inhibition.

rat MEK1, sequence (Q01986 whole entry): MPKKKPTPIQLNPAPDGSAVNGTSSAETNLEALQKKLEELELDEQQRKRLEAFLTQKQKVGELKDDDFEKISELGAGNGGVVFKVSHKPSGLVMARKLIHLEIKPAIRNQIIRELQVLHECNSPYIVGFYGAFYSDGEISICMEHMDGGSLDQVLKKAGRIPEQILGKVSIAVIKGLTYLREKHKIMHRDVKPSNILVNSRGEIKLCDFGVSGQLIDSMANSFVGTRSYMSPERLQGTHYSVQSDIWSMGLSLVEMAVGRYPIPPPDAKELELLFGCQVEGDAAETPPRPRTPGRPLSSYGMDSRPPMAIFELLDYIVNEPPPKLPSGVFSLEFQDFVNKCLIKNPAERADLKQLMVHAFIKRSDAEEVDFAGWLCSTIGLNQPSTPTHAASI

On to `C[C@H]1C/C=C\C(=O)[C@@H](O)[C@@H](O)C[C@H]2O[C@@H]2c2cc(O)cc(O)c2C(=O)O1` [Compound II, 4-O-desmethylhypothemycin], for which the IC50 in [1] (setting [17]) amounted to 0.038 µM; in assay [2] (setting [18]) it was 0.1 µM; in [3] it was 1.8 µM. The “ERK2 Inhibition kinact.” value on ERK2 [4] is listed as 3.3 ± 0.4 × 10^−3 sec^−1. For the same compound, the Ki on ERK2 [4] (Table 7; read-out: ERK2 Inhibition Ki) came to 2.2 ± 0.4 µM.

For the compound `CNC(=O)c1cc(Oc2ccc(NC(=O)Nc3ccc(Cl)c(C(F)(F)F)c3)cc2)ccn1` [BAY 43-9006, Sorafenib], the GI50 in assay [1] (Homo sapiens, COLO-829) was determined as 6 µM; in [7] (P815), 0.31 µM. The IC50 in assay [1] (Homo sapiens, COLO-829, read-out: Kinase Inhibitor IC50) amounted to 6 µM; in assay [2] (Homo sapiens, HT-29, read-out: Kinase Inhibitor IC50), 4.7 µM; in assay [5] (Homo sapiens, A-375, read-out: Kinase Inhibitor IC50), 4.3 µM; in assay [6] (Homo sapiens, WM 266-4, read-out: Kinase Inhibitor IC50), 5.4 µM; in assay [7] (P815, read-out: Kinase Inhibitor IC50), 0.31 µM; in assay [8] (Homo sapiens, A549, read-out: Kinase Inhibitor IC50), 5.5 µM. In addition, the IC50 was determined as 3.6 µM in [9] (Homo sapiens, DU-4475, read-out: Kinase Inhibitor IC50); 0.00023 µM in [10]; 0.0023 µM in assay [11].

In the case of `C[C@H]1CCCC(=O)CCC/C=C/c2cc(O)cc(O)c2C(=O)O1` [zearalenone], the “inhibition of the activation of ERK1/2” value in assay [12] was “not”.

`COc1cc(O)c2c(c1)CCC[C@H](O)[C@H](O)C(=O)/C=C\C[C@H](C)OC2=O` [L-783,277]: the “reduction of the IC50 value for MEK1 by pre-incubation” value at MEK1 [13] (60 min. pre-incubation) was 10 fold. Also, the IC50 on MEK1 [13] (MEK1) is 0.004 µM. For the same compound, the “inhibition of PKA, PKC or Raf” value with PKA, PKC or Raf is recorded as “not”.

As to `C[C@H]1C/C=C\C(=O)[C@@H](O)[C@@H](O)C[C@H]2O[C@@H]2c2cc(OCC3CCCN(C)C3)cc(O)c2C(=O)O1` (stereo partly shown) [V], the figures for the IC50 in [1] (setting [17]), in assay [2] (setting [18]) and in assay [3] were 0.079 µM, 0.6 µM and 15 µM, respectively. The “ERK2 Inhibition kinact.” value on ERK2 [4] (Table 7) is listed as 1 ± 0.1 × 10^−3 sec^−1. Besides, the Ki at ERK2 [4] (read-out: ERK2 Inhibition Ki; Table 7) stood at 0.94 ± 0.58 µM.

`COc1cc(O)c2c(c1)/C=C/C[C@H](O)[C@H](O)C(=O)/C=C\C[C@H](C)OC2=O` [(5Z)-7-oxozeaneol]: the IC50 on rat MEK1 was 0.411 µM.

For `CCOC(=O)c1ccc(C#Cc2ccc3c(c2)C(C)(C)CCS3)nc1` [Tazarotene], the “inhibition of development of BCCs” value with BCCs in Ptc+/− mice is reported as over 85%. Further, the IC50 was 10 µM in assay [14] (ASZ001 (Basal cell carcinoma), read-out: Kinase Inhibitor IC50) and about 10 µM in [14] (BCC cell line ASZ001 in culture, read-out: IC50).

Take `COc1cccc(-c2cc(=O)c3ccccc3o2)c1N` [PD 98059]: the IC50 was 5.5 µM in assay [2] (setting [19]); 43 µM in [5] (setting [20]); 21 µM in assay [6] (setting [21]); 48 µM in assay [8] (setting [22]); 56 µM in assay [9] (setting [23]).

As for 5,6-Dihydrohypothemycin, the kinact/Ki result at ERK2 [15] and on MEK1 [16] was “None” each time. In addition, the kinact result on ERK2 [15] (1 mM ATP) and on MEK1 [16] (1 mM ATP) was “None” each time. For the same compound, the Ki on ERK2 [15] (1 mM ATP, read-out: Ki) was 28 µM; on MEK1 [16] (1 mM ATP) it was 3 µM. Further, the IC50 was 3.7 µM in assay [1] (COLO829 (Human melanoma, B-Raf V599E), Tables 1 and 4, read-out: Kinase Inhibitor IC50); 15 µM in assay [2] (setting [19]); over 50 µM in [5] (setting [20]); 15 µM in assay [6] (setting [21]); 107 µM in [8] (setting [22]); 46 µM in assay [9] (setting [23]).

The record behind these values is US20100004234A1, “SPECIFIC KINASE INHIBITORS” (Kosan Biosciences Incorporated, priority 2004, published 2010).
